Here are results for five molecules from patent publication US20200325483A1, “SAFE DELIVERY OF CRISPR AND OTHER GENE THERAPIES TO LARGE FRACTIONS OF SOMATIC CELLS IN HUMANS AND ANIMALS” (priority 2016, published 2020).

Like-named read-outs stand apart in the source and are kept apart here. Ends that are not written are not given here. Where only a bound is given, the exact number is not on record here.

One data set has as its system TNFα. Conditions: cited from earlier work.
Another data set deals with Dogs. The settings on record: cited from earlier work.
The next data set relates to Rodents. Conditions: cited from earlier work.
The subject of data set [1] is sepsis. Conditions: in vivo; cited from earlier work.
In data set [2] the test system is mice. The data set is described as follows: LPS LD50 in mouse model. The class given is in vivo. As to the method: In mouse model the LD50 of LPS depends on liver protein synthesis. […] However, in mice pretreated with β-galactosamine to inhibit liver protein synthesis, the mouse LD50 is approximately 5 nanograms (200 ng/kg), 30,000 times less. By comparison, normal humans show reactions at 2-4 nanograms of LPS per kilogram. The human LD50 for LPS is below 5 micrograms per kilogram, three orders of magnitude lower than mice. Humans are […] larger yet die at doses only double the dose that kills a 25-gram mouse. […] Human LPS sensitivity is believed to be due to mutations in sialic acid binding Ig-like lectins (siglecs). Phenotypically, knockouts of siglecs produce hyper-reactive immune system components. The missing siglec-13 and inactivated siglec-17 that are active in other primates affects control over TLR4. TLR4 is the receptor for LPS. It is also the target for HMGB1, in DAMP signaling.

Data set [3] relates to mice. The settings on record: cited from earlier work.
Another data set concerns humans. The settings on record: cited from earlier work.
Data set [4] concerns sepsis. The settings on record: animal studies, as long as there is not an underlying infection; cited from earlier work.

For `COc1cc(CC(C)N)c(OC)cc1I` (stereo not shown) [DOI, 2,5-Dimethoxy-4-iodoamphetamine], the “TNFα inhibition (in words)” value in the data set with TNFα is listed as “strongest TNFα inhibitor known”.

As to Polymyxin B sulfate, the “dose at which animals begin dying” value with Dogs was 8 mg/kg. In the data set with Rodents, the tolerated dose is at least 100 mg/kg.

Regarding “ghrelin: Ghrelin, injected to rescue from sepsis (GSSFLSPEHQRVQQRKESKKPPAKLQPR; ends and bridges not checked; UniProt Q9UBU3 24-51, looked up)”, in the data set on sepsis [1], the “rescue from sepsis (in words)” value was “rescue from sepsis with remarkable effect”.

lipopolysaccharide [LPS]: in the data set on mice [2], the “fold lower LD50 in β-galactosamine pretreated vs normal mice” value is reported as 30,000 times. Moreover, the “LPS LD50” value is on record as “approximately 5 nanograms” in the data set on mice [3] (mice pretreated with β-galactosamine to inhibit liver protein synthesis, per animal); “approximately 150 micrograms” in the data set with mice [3] (normal 25 gram mice, per animal); around 6 mg/kg in the data set on mice [3] (normal 25 gram mice); 300 micrograms in the data set on humans (average adult human, per person); “below 5 micrograms per kilogram” in the data set on humans (human). Besides, the “time for LD50 dose to complete its course” value in the data set on mice [3] (normal 25 gram mice) was 35 h. The “LPS dose at which reactions are shown” value with humans (normal humans) is given as 2-4 nanograms of LPS per kilogram.

B1: IL-10: IL-10, injected to temper sepsis (protein, UniProt P22301 19-178, looked up)
Interleukin-10: SPGQGTQSENSCTHFPGNLPNMLRDLRDAFSRVKTFFQMKDQLDNLLLKESLLEDFKGYLGCQALSEMIQFYLEEVMPQAENQDPDIKAHVNSLGENLKTLRLRLRRCHRFLPCENKSKAVEQVKNAFNKLQEKGIYKAMSEFDIFINYIEAYMTMKIRN
For the molecule B1, the “effect on sepsis (in words)” value in the data set on sepsis [4] is recorded as “effective in animal studies at tempering sepsis”.
